Measurements taken from patent US9833497B2, “Human originated EGF domain proteins and use of the same” (CHENGDU SOURCEBIO LIMITED-LIABILITY COMPANY, priority 2013, dated 2017).

Key:
Assay type in all cases: cell-based
E. coli DH5α = experiment: Antibacterial activity: MIC and growth curve against E. coli DH5α in 96-well plate; details: minimal inhibitory concentration against E. coli DH5α; 96-well plate, 5×10^5 CFU/mL, 37° C., judged after 8 h
How it was run: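 Log-phase bacteria (OD600 ~0.5) resuspended in LB at 5×10^5 CFU/mL, exposed to recombinant protein at 50, 25, 12.5 μg/mL final in triplicate, 37 °C shaking at 175 rpm. OD600 read every 30 min; MIC is lowest concentration showing no growth.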

E. coli BL21 = experiment: MIC against Gram-negative bacteria: E. coli BL21
How it was run: (§1)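 Bacteria grown in LB at 37° C with shaking to McFarland 0.5, pelleted and resuspended in fresh LB, then seeded at 5×10^5 CFU/mL per well. Purified recombinant human EGF domain proteins were two-fold serially diluted in triplicate and plates shaken at 37° C, 175 rpm. MIC is the lowest protein concentration with no bacterial growth.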

Pseudomonas aeruginosa = experiment: MIC against Gram-negative bacteria: Pseudomonas aeruginosa
How it was run: as §1

Klebsiella pneumonia = experiment: MIC against Gram-negative bacteria: Klebsiella pneumonia
How it was run: as §1

Enterobacter cloacae = experiment: MIC against Gram-negative bacteria: Enterobacter cloacae
How it was run: as §1

Aeromonas hydrophila = experiment: MIC against Gram-negative bacteria: Aeromonas hydrophila
How it was run: as §1

Citrobacter diversus = experiment: MIC against Gram-negative bacteria: Citrobacter diversus
How it was run: as §1

Moraxella catarrhalis = experiment: MIC against Gram-negative bacteria: Moraxella catarrhalis
How it was run: as §1

Proteus mirabilis = experiment: MIC against Gram-negative bacteria: Proteus mirabilis
How it was run: as §1

Proteus vulgaris = experiment: MIC against Gram-negative bacteria: Proteus vulgaris
How it was run: as §1

Serratia marcescens = experiment: MIC against Gram-negative bacteria: Serratia marcescens
How it was run: as §1

[1] = E. coli BL21, 96-well plate, 5×10^5 CFU/mL, 37° C., 10 h
[2] = Pseudomonas aeruginosa, 96-well plate, 5×10^5 CFU/mL, 37° C., 10 h
[3] = Klebsiella pneumonia, 96-well plate, 5×10^5 CFU/mL, 37° C., 10 h
[4] = Enterobacter cloacae, 96-well plate, 5×10^5 CFU/mL, 37° C., 10 h
[5] = Aeromonas hydrophila, 96-well plate, 5×10^5 CFU/mL, 37° C., 10 h
[6] = Citrobacter diversus, 96-well plate, 5×10^5 CFU/mL, 37° C., 10 h
[7] = Moraxella catarrhalis, 96-well plate, 5×10^5 CFU/mL, 37° C., 10 h
[8] = Proteus mirabilis, 96-well plate, 5×10^5 CFU/mL, 37° C., 10 h
[9] = Proteus vulgaris, 96-well plate, 5×10^5 CFU/mL, 37° C., 10 h
[10] = Serratia marcescens, 96-well plate, 5×10^5 CFU/mL, 37° C., 10 h
[11] = 10 h cultivation at 37° C., 5×10^5 CFU/mL, two-fold serial dilution

PRT91 (DTNECIQFPFVCPRDKPVCVNTYGSYRCRTNKKCSRGYEPNEDGTAC; listed as Homo sapiens)
50 µg/mL: MIC (μg/mL) P. vulgaris (Proteus vulgaris; [9])
25 µg/mL: MIC (μg/mL) A. hydrophila (Aeromonas hydrophila; [5]) | MIC (μg/mL) M. catarrhalis (Moraxella catarrhalis; [7])
12.5 µg/mL: MIC (E. coli DH5α) | MIC (μg/mL) E. coli BL21 (E. coli BL21; [1]) | MIC (μg/mL) P. aeruginosa (Pseudomonas aeruginosa; [2]) | MIC (μg/mL) K. pneumonia (Klebsiella pneumonia; [3]) | MIC (μg/mL) E. cloacae (Enterobacter cloacae; [4]) | MIC (μg/mL) C. diversus (Citrobacter diversus; [6]) | MIC (μg/mL) P. mirabilis (Proteus mirabilis; [8]) | MIC (μg/mL) S. marcescens (Serratia marcescens; [10])

PRT101 (DVDECSSGQHQCDSSTVCFNTVGSYSCRCRPGWKPRHGIPNNQKDTVCE; listed as Homo sapiens)
25 µg/mL: MIC (E. coli DH5α) | MIC (μg/mL) P. aeruginosa (Pseudomonas aeruginosa; [2]) | MIC (μg/mL) E. cloacae (Enterobacter cloacae; [4])
12.5 µg/mL: MIC (μg/mL) P. mirabilis (Proteus mirabilis; [8]) | MIC (μg/mL) P. vulgaris (Proteus vulgaris; [9]) | MIC (μg/mL) S. marcescens (Serratia marcescens; [10])
50 µg/mL: MIC (μg/mL) E. coli BL21 (E. coli BL21; [1]) | MIC (μg/mL) K. pneumonia (Klebsiella pneumonia; [3]) | MIC (μg/mL) A. hydrophila (Aeromonas hydrophila; [5]) | MIC (μg/mL) C. diversus (Citrobacter diversus; [6]) | MIC (μg/mL) M. catarrhalis (Moraxella catarrhalis; [7])

PRT1093 (RKDWCESQPCQSRGRCINLWLSYQCDCHRPYEGPNCL; listed as Homo sapiens)
25 µg/mL: MIC C. diversus (Citrobacter diversus; [11]) | MIC P. mirabilis (Proteus mirabilis; [11])
12.5 µg/mL: MIC (E. coli DH5α) | MIC P. aeruginosa (Pseudomonas aeruginosa; [11]) | MIC E. cloacae (Enterobacter cloacae; [11]) | MIC M. catarrhalis (Moraxella catarrhalis; [11]) | MIC S. marcescens (Serratia marcescens; [11])
50 µg/mL: MIC E. coli BL21 (E. coli BL21; [11]) | MIC K. pneumonia (Klebsiella pneumonia; [11]) | MIC A. hydrophila (Aeromonas hydrophila; [11]) | MIC P. vulgaris (Proteus vulgaris; [11])

PRT260 (CRAGNGGCHGLATCRAVGGGQRVCTCPPGFGGDGFSC; listed as Homo sapiens)
25 µg/mL: MIC (μg/mL) E. coli BL21 (E. coli BL21; E. coli BL21, 10 h cultivation at 37° C., 5×10^5 CFU/mL) | MIC (μg/mL) K. pneumonia (Klebsiella pneumonia; K. pneumonia, 10 h cultivation at 37° C., 5×10^5 CFU/mL) | MIC (μg/mL) A. hydrophila (Aeromonas hydrophila; A. hydrophila, 10 h cultivation at 37° C., 5×10^5 CFU/mL) | MIC (μg/mL) M. catarrhalis (Moraxella catarrhalis; M. catarrhalis, 10 h cultivation at 37° C., 5×10^5 CFU/mL)
50 µg/mL: MIC (μg/mL) P. aeruginosa (Pseudomonas aeruginosa; P. aeruginosa, 10 h cultivation at 37° C., 5×10^5 CFU/mL) | MIC (μg/mL) C. diversus (Citrobacter diversus; C. diversus, 10 h cultivation at 37° C., 5×10^5 CFU/mL)
12.5 µg/mL: MIC (E. coli DH5α) | MIC (μg/mL) E. cloacae (Enterobacter cloacae; E. cloacae, 10 h cultivation at 37° C., 5×10^5 CFU/mL) | MIC (μg/mL) P. mirabilis (Proteus mirabilis; P. mirabilis, 10 h cultivation at 37° C., 5×10^5 CFU/mL) | MIC (μg/mL) P. vulgaris (Proteus vulgaris; P. vulgaris, 10 h cultivation at 37° C., 5×10^5 CFU/mL) | MIC (μg/mL) S. marcescens (Serratia marcescens; S. marcescens, 10 h cultivation at 37° C., 5×10^5 CFU/mL)

PRT997 (EVDECLSDPCPVGASCLDLPGAFFCLCPSGFTGQLCE; listed as Homo sapiens)
12.5 µg/mL: MIC (E. coli DH5α) | MIC (E. coli BL21; E. coli BL21, 10 h cultivation at 37° C.) | MIC (Pseudomonas aeruginosa; P. aeruginosa, 10 h cultivation at 37° C.) | MIC (Klebsiella pneumonia; K. pneumonia, 10 h cultivation at 37° C.) | MIC (Aeromonas hydrophila; A. hydrophila, 10 h cultivation at 37° C.) | MIC (Moraxella catarrhalis; M. catarrhalis, 10 h cultivation at 37° C.)
50 µg/mL: MIC (Enterobacter cloacae; E. cloacae, 10 h cultivation at 37° C.) | MIC (Citrobacter diversus; C. diversus, 10 h cultivation at 37° C.) | MIC (Proteus vulgaris; P. vulgaris, 10 h cultivation at 37° C.)
25 µg/mL: MIC (Proteus mirabilis; P. mirabilis, 10 h cultivation at 37° C.) | MIC (Serratia marcescens; S. marcescens, 10 h cultivation at 37° C.)
